Assay results: PMC10408569, “Recruitment of hexahydroquinoline as anticancer scaffold targeting inhibition of wild and mutants EGFR (EGFR^WT, EGFR^T790M, and EGFR^L858R)” (Journal of Enzyme Inhibition and Medicinal Chemistry, 2023)

Columns and labels:
A549/ATCC = experiment: NCI-60 anticancer screening (SRB); assay type: cell-based; settings: Homo sapiens; A549/ATCC, NSC lung cancer; one dose 10 μM; read-out: Growth Inhibition Percentage (GI %)
MALME-3M = experiment: NCI-60 anticancer screening (SRB); assay type: cell-based; settings: Homo sapiens, melanoma, one dose 10 μM, read-out: Growth Inhibition Percentage (GI %)
HCT-15 = experiment: NCI-60 anticancer screening (SRB); assay type: cell-based; settings: Homo sapiens; HCT-15, colon cancer; one dose 10 μM; read-out: Growth Inhibition Percentage (GI %)
IGROV1 = experiment: NCI-60 anticancer screening (SRB); assay type: cell-based; settings: Homo sapiens, IGROV-1; IGROV1, ovarian cancer; one dose 10 μM; read-out: Growth Inhibition Percentage (GI %)
NCI/ADR-RES = experiment: NCI-60 anticancer screening (SRB); assay type: cell-based; settings: Homo sapiens, ovarian cancer, one dose 10 μM, read-out: Growth Inhibition Percentage (GI %)
HOP-62 = experiment: NCI-60 anticancer screening (SRB); assay type: cell-based; settings: Homo sapiens; HOP-62, NSC lung cancer; one dose 10 μM; read-out: Growth Inhibition Percentage (GI %)
NCI-H226 = experiment: NCI-60 anticancer screening (SRB); assay type: cell-based; settings: Homo sapiens; NCI-H226, NSC lung cancer; one dose 10 μM; read-out: Growth Inhibition Percentage (GI %)
DU-145 = experiment: NCI-60 anticancer screening (SRB); assay type: cell-based; settings: Homo sapiens; DU-145, prostate cancer; one dose 10 μM; read-out: Growth Inhibition Percentage (GI %)
MDA-MB-231 = experiment: NCI-60 anticancer screening (SRB); assay type: cell-based; settings: Homo sapiens; MDA-MB-231, breast cancer; one dose 10 μM; read-out: Growth Inhibition Percentage (GI %)
CAKI-1 = experiment: NCI-60 anticancer screening (SRB); assay type: cell-based; settings: Homo sapiens; CAKI-1, renal cancer; one dose 10 μM; read-out: Growth Inhibition Percentage (GI %)
SNB-75 = experiment: NCI-60 anticancer screening (SRB); assay type: cell-based; settings: Homo sapiens; SNB-75, CNS cancer; one dose 10 μM; read-out: Growth Inhibition Percentage (GI %)
NCI-H522 = experiment: NCI-60 anticancer screening (SRB); assay type: cell-based; settings: Homo sapiens; NCI-H522, NSC lung cancer; one dose 10 μM; read-out: Growth Inhibition Percentage (GI %)
NCI-H322M = experiment: NCI-60 anticancer screening (SRB); assay type: cell-based; settings: Homo sapiens, NSC lung cancer, one dose 10 μM, read-out: Growth Inhibition Percentage (GI %)
BT-549 = experiment: NCI-60 anticancer screening (SRB); assay type: cell-based; settings: Homo sapiens; BT-549, breast cancer; one dose 10 μM; read-out: Growth Inhibition Percentage (GI %)
786-0 = experiment: NCI-60 anticancer screening (SRB); assay type: cell-based; settings: Homo sapiens; 786-0, renal cancer; one dose 10 μM; read-out: Growth Inhibition Percentage (GI %)
UO-31 = experiment: NCI-60 anticancer screening (SRB); assay type: cell-based; settings: Homo sapiens; UO-31, renal cancer; one dose 10 μM; read-out: Growth Inhibition Percentage (GI %)
MOLT-4 = experiment: NCI-60 anticancer screening (SRB); assay type: cell-based; settings: Homo sapiens; MOLT-4, leukemia; one dose 10 μM; read-out: Growth Inhibition Percentage (GI %)
HCC-2998 = experiment: NCI-60 anticancer screening (SRB); assay type: cell-based; settings: Homo sapiens; HCC-2998, colon cancer; one dose 10 μM; read-out: Growth Inhibition Percentage (GI %)
HL-60(TB) = experiment: NCI-60 anticancer screening (SRB); assay type: cell-based; settings: Homo sapiens, leukemia, one dose 10 μM, read-out: Growth Inhibition Percentage (GI %)
UACC-257 = experiment: NCI-60 anticancer screening (SRB); assay type: cell-based; settings: Homo sapiens; UACC-257, melanoma; one dose 10 μM; read-out: Growth Inhibition Percentage (GI %)
U251 = experiment: NCI-60 anticancer screening (SRB); assay type: cell-based; settings: Homo sapiens, U-251; U251, CNS cancer; one dose 10 μM; read-out: Growth Inhibition Percentage (GI %)
SNB-19 = experiment: NCI-60 anticancer screening (SRB); assay type: cell-based; settings: Homo sapiens; SNB-19, CNS cancer; one dose 10 μM; read-out: Growth Inhibition Percentage (GI %)
EKVX = experiment: NCI-60 anticancer screening (SRB); assay type: cell-based; settings: Homo sapiens, NSC lung cancer, one dose 10 μM, read-out: Growth Inhibition Percentage (GI %)
MDA-MB-435 = experiment: NCI-60 anticancer screening (SRB); assay type: cell-based; settings: Homo sapiens; MDA-MB-435, melanoma; one dose 10 μM; read-out: Growth Inhibition Percentage (GI %)
OVCAR-5 = experiment: NCI-60 anticancer screening (SRB); assay type: cell-based; settings: Homo sapiens; OVCAR-5, ovarian cancer; one dose 10 μM; read-out: Growth Inhibition Percentage (GI %)
COLO 205 = experiment: NCI-60 anticancer screening (SRB); assay type: cell-based; settings: Homo sapiens; COLO 205, colon cancer; one dose 10 μM; read-out: Growth Inhibition Percentage (GI %)
OVCAR-8 = experiment: NCI-60 anticancer screening (SRB); assay type: cell-based; settings: Homo sapiens; OVCAR-8, ovarian cancer; one dose 10 μM; read-out: Growth Inhibition Percentage (GI %)
MDA-MB-468 = experiment: NCI-60 anticancer screening (SRB); assay type: cell-based; settings: Homo sapiens; MDA-MB-468, breast cancer; one dose 10 μM; read-out: Growth Inhibition Percentage (GI %)
KM 12 = experiment: NCI-60 anticancer screening (SRB); assay type: cell-based; settings: Homo sapiens, KM12; KM 12, colon cancer; one dose 10 μM; read-out: Growth Inhibition Percentage (GI %)
OVCAR-3 = experiment: NCI-60 anticancer screening (SRB); assay type: cell-based; settings: Homo sapiens; OVCAR-3, ovarian cancer; one dose 10 μM; read-out: Growth Inhibition Percentage (GI %)
SK-MEL-2 = experiment: NCI-60 anticancer screening (SRB); assay type: cell-based; settings: Homo sapiens; SK-MEL-2, melanoma; one dose 10 μM; read-out: Growth Inhibition Percentage (GI %)

SMILES	inhibition at 10 µM (A549/ATCC) [%]	inhibition at 10 µM (MALME-3M) [%]	inhibition at 10 µM (HCT-15) [%]	inhibition at 10 µM (IGROV1) [%]	inhibition at 10 µM (NCI/ADR-RES) [%]	inhibition at 10 µM (HOP-62) [%]	inhibition at 10 µM (NCI-H226) [%]	inhibition at 10 µM (DU-145) [%]	inhibition at 10 µM (MDA-MB-231) [%]	inhibition at 10 µM (CAKI-1) [%]	inhibition at 10 µM (SNB-75) [%]	inhibition at 10 µM (NCI-H522) [%]	inhibition at 10 µM (NCI-H322M) [%]	inhibition at 10 µM (BT-549) [%]	inhibition at 10 µM (786-0) [%]	inhibition at 10 µM (UO-31) [%]	inhibition at 10 µM (MOLT-4) [%]	inhibition at 10 µM (HCC-2998) [%]	inhibition at 10 µM (HL-60(TB)) [%]	inhibition at 10 µM (UACC-257) [%]	also measured
CCOC(=O)C1=C(N)N(c2ccc(C)cc2)C2=C(C(=O)CC(C)(C)C2)C1c1ccccc1Cl (racemic) [6b, (±)-Ethyl 2-amino-4–(2-chlorophenyl)-7,7-dimethyl-1–(4-methylphenyl)-5-oxo-1,4,5,6,7,8-hexahydroquinoline-3-carboxylate]	13	< 10	30	< 10	< 10	< 10	< 10	< 10	< 10	31	29	17	< 10	11	< 10	19	< 10	< 10	< 10	< 10	inhibition at 10 µM (U251): < 10%; inhibition at 10 µM (SNB-19): 12%; inhibition at 10 µM (EKVX): 15%; inhibition at 10 µM (MDA-MB-435): < 10%; inhibition at 10 µM (OVCAR-5): < 10%; inhibition at 10 µM (COLO 205): 19%; inhibition at 10 µM (OVCAR-8): 20%; inhibition at 10 µM (MDA-MB-468): 20%; inhibition at 10 µM (KM 12): < 10%; inhibition at 10 µM (OVCAR-3): 17%; inhibition at 10 µM (SK-MEL-2): < 10%; melting point: 240 to 242 °C
CCOC(=O)C1=C(N)N(c2ccccc2)C2=C(C(=O)CC(C)(C)C2)C1c1ccccc1OC (racemic) [6g, (±)-Ethyl 2-amino-4–(2-methoxyphenyl)-7,7-dimethyl-5-oxo-1-phenyl-1,4,5,6,7,8-hexahydroquinoline-3-carboxylate]	< 10	< 10	< 10	< 10	< 10	< 10	< 10	< 10	< 10	< 10	< 10	< 10	< 10	< 10	< 10	26	< 10	< 10	< 10	< 10	inhibition at 10 µM (U251): < 10%; inhibition at 10 µM (SNB-19): < 10%; inhibition at 10 µM (EKVX): < 10%; inhibition at 10 µM (MDA-MB-435): < 10%; inhibition at 10 µM (OVCAR-5): < 10%; inhibition at 10 µM (COLO 205): < 10%; inhibition at 10 µM (OVCAR-8): < 10%; inhibition at 10 µM (MDA-MB-468): 11%; inhibition at 10 µM (KM 12): < 10%; inhibition at 10 µM (OVCAR-3): < 10%; inhibition at 10 µM (SK-MEL-2): < 10%; melting point: 243 to 245 °C
CCOC(=O)C1=C(N)N(c2ccc(C)cc2)C2=C(C(=O)CC(C)(C)C2)C1c1ccccc1OC (racemic) [6h, (±)-Ethyl 2-amino-4–(2-methoxyphenyl)-7,7-dimethyl-1–(4-methylphenyl)-5-oxo-1,4,5,6,7,8-hexahydroquinoline-3-carboxylate]	< 10	< 10	< 10	< 10	< 10	< 10	< 10	< 10	< 10	< 10	< 10	< 10	< 10	< 10	< 10	21	< 10	< 10	< 10	< 10	inhibition at 10 µM (U251): < 10%; inhibition at 10 µM (SNB-19): < 10%; inhibition at 10 µM (EKVX): < 10%; inhibition at 10 µM (MDA-MB-435): < 10%; inhibition at 10 µM (OVCAR-5): < 10%; inhibition at 10 µM (COLO 205): < 10%; inhibition at 10 µM (OVCAR-8): < 10%; inhibition at 10 µM (MDA-MB-468): < 10%; inhibition at 10 µM (KM 12): < 10%; inhibition at 10 µM (OVCAR-3): < 10%; inhibition at 10 µM (SK-MEL-2): < 10%; melting point: 181 to 183 °C
CCOC(=O)C1=C(N)N(c2ccccc2)C2=C(C(=O)CC(C)(C)C2)C1c1ccc(F)cc1 (racemic) [8a, (±)-Ethyl 2-amino-4–(4-fluorophenyl)-7,7-dimethyl-5-oxo-1-phenyl-1,4,5,6,7,8-hexahydroquinoline-3-carboxylate]	< 10	< 10	< 10	< 10	< 10	< 10	< 10	< 10	< 10	< 10	< 10	< 10	< 10	< 10	< 10	< 10	< 10	< 10	< 10	< 10	inhibition at 10 µM (U251): < 10%; inhibition at 10 µM (SNB-19): < 10%; inhibition at 10 µM (EKVX): < 10%; inhibition at 10 µM (MDA-MB-435): < 10%; inhibition at 10 µM (OVCAR-5): < 10%; inhibition at 10 µM (COLO 205): < 10%; inhibition at 10 µM (OVCAR-8): < 10%; inhibition at 10 µM (MDA-MB-468): < 10%; inhibition at 10 µM (KM 12): < 10%; inhibition at 10 µM (OVCAR-3): < 10%; inhibition at 10 µM (SK-MEL-2): < 10%; melting point: 215 to 217 °C
